According to article PMC10323144, “Garbage in, garbage out: how reliable training data improved a virtual screening approach against SARS-CoV-2 MPro” (Frontiers in Pharmacology, 2023):
Square brackets hold non-standard residues; d marks the D form. Peptide text beside a SMILES is read from it. * marks the point of attachment. NMeF = CN[CH](Cc1ccccc1)C(=O)O; NMeA = CN[CH](C)C(=O)O; tBu = CC(C)(C)*

Target: SARS-CoV-2 MPro (Severe acute respiratory syndrome coronavirus 2, UniProt P0DTD1)
Assay: MPro activity assay (de-quenching of Edans fluorescence on cleavage of a Dabcyl/Edans peptide)
Format: biochemical
Conditions: in-house acquired data, internal screening under standardized conditions (128 compounds)

Row | SMILES | Class (MPro activity class)
1 | O=c1c2ccccc2sn1-c1nc2cc(Sc3ccccc3)ccc2[nH]1 [COV19021] | 1 (Compounds with IC50 < 10 µM or with a percentage of enzyme inhibition >50% at 10 µM were labelled as ACTIVE)
2 | O=C(Cn1ccnc1NC(=O)c1ccccc1I)NCc1ccccc1 [COV19022] | 0 (compounds with IC50 > 20 μM, percentage inhibition <80% at 20 µM or 50 μM, or percentage enzyme inhibition <50% at 10 µM were labelled as INACTIVE)
3 | O=C(Cn1ccnc1-n1sc2ccccc2c1=O)NCc1ccccc1 [COV19023] | 0 (compounds with IC50 > 20 μM, percentage inhibition <80% at 20 µM or 50 μM, or percentage enzyme inhibition <50% at 10 µM were labelled as INACTIVE)
4 | COc1ccc(CNC(=O)c2ccccc2I)cc1 [COV19024] | 0 (compounds with IC50 > 20 μM, percentage inhibition <80% at 20 µM or 50 μM, or percentage enzyme inhibition <50% at 10 µM were labelled as INACTIVE)
5 | Cc1ccc(NC(=O)c2ccccc2I)cc1 [COV19025] | 0 (compounds with IC50 > 20 μM, percentage inhibition <80% at 20 µM or 50 μM, or percentage enzyme inhibition <50% at 10 µM were labelled as INACTIVE)
6 | O=C(Nc1ccccc1)c1ccccc1I [COV19026] | 0 (compounds with IC50 > 20 μM, percentage inhibition <80% at 20 µM or 50 μM, or percentage enzyme inhibition <50% at 10 µM were labelled as INACTIVE)
7 | O=C(Nc1ccc(Cl)cc1)c1ccccc1I [COV19027] | 0 (compounds with IC50 > 20 μM, percentage inhibition <80% at 20 µM or 50 μM, or percentage enzyme inhibition <50% at 10 µM were labelled as INACTIVE)
8 | Cc1cccc(Cl)c1NC(=O)c1ccccc1I [COV19028] | 0 (compounds with IC50 > 20 μM, percentage inhibition <80% at 20 µM or 50 μM, or percentage enzyme inhibition <50% at 10 µM were labelled as INACTIVE)
9 | O=C(Nc1nc2cc(Sc3ccccc3)ccc2[nH]1)c1ccccc1I [COV19029] | 0 (compounds with IC50 > 20 μM, percentage inhibition <80% at 20 µM or 50 μM, or percentage enzyme inhibition <50% at 10 µM were labelled as INACTIVE)
10 | O=C(Nc1ccc([N+](=O)[O-])cc1)c1ccccc1I [COV19030] | 0 (compounds with IC50 > 20 μM, percentage inhibition <80% at 20 µM or 50 μM, or percentage enzyme inhibition <50% at 10 µM were labelled as INACTIVE)
11 | COc1cccc(OC)c1NC(=O)c1ccccc1I [COV19031] | 0 (compounds with IC50 > 20 μM, percentage inhibition <80% at 20 µM or 50 μM, or percentage enzyme inhibition <50% at 10 µM were labelled as INACTIVE)
12 | O=C(NCc1ccc(C(F)(F)F)cc1)c1ccccc1I [COV19032] | 0 (compounds with IC50 > 20 μM, percentage inhibition <80% at 20 µM or 50 μM, or percentage enzyme inhibition <50% at 10 µM were labelled as INACTIVE)
13 | O=C(Nc1cccc2ccccc12)c1ccccc1I [COV19033] | 0 (compounds with IC50 > 20 μM, percentage inhibition <80% at 20 µM or 50 μM, or percentage enzyme inhibition <50% at 10 µM were labelled as INACTIVE)
14 | Cc1cccc(C(=O)Nc2ccccc2)c1I [COV19034] | 0 (compounds with IC50 > 20 μM, percentage inhibition <80% at 20 µM or 50 μM, or percentage enzyme inhibition <50% at 10 µM were labelled as INACTIVE)
15 | NC(=O)c1ccccc1I [COV19035] | 0 (compounds with IC50 > 20 μM, percentage inhibition <80% at 20 µM or 50 μM, or percentage enzyme inhibition <50% at 10 µM were labelled as INACTIVE)
16 | Cc1cccc(C(N)=O)c1I [COV19036] | 0 (compounds with IC50 > 20 μM, percentage inhibition <80% at 20 µM or 50 μM, or percentage enzyme inhibition <50% at 10 µM were labelled as INACTIVE)
17 | O=C(Nc1ccc(C(F)(F)F)cc1)c1ccccc1I [COV19037] | 0 (compounds with IC50 > 20 μM, percentage inhibition <80% at 20 µM or 50 μM, or percentage enzyme inhibition <50% at 10 µM were labelled as INACTIVE)
18 | Cc1ccc(NC(=O)c2c(C)cc(Cl)cc2I)cc1 [COV19038] | 0 (compounds with IC50 > 20 μM, percentage inhibition <80% at 20 µM or 50 μM, or percentage enzyme inhibition <50% at 10 µM were labelled as INACTIVE)
19 | Cc1cc(Cl)cc(I)c1C(=O)NCc1ccccc1 [COV19039] | 0 (compounds with IC50 > 20 μM, percentage inhibition <80% at 20 µM or 50 μM, or percentage enzyme inhibition <50% at 10 µM were labelled as INACTIVE)
20 | Cc1cccc(C(=O)NCc2ccccc2)c1I [COV19040] | 0 (compounds with IC50 > 20 μM, percentage inhibition <80% at 20 µM or 50 μM, or percentage enzyme inhibition <50% at 10 µM were labelled as INACTIVE)
21 | CC1C(=O)NC(Cc2ccccc2)C(=O)N(C)C(Cc2ccccc2)C(=O)NCC(=O)N1C (centres unmarked) [COV19080] (cyclo(G[NMeA]F[NMeF]); configuration not given here) | 0 (compounds with IC50 > 20 μM, percentage inhibition <80% at 20 µM or 50 μM, or percentage enzyme inhibition <50% at 10 µM were labelled as INACTIVE)
22 | CC1C(=O)NC(Cc2ccc(OC(C)(C)C)cc2)C(=O)NCC(=O)N(C)C(Cc2ccccc2)C(=O)N1C (centres unmarked) [COV19081] (cyclo(G[NMeF][NMeA]Y(tBu)); configuration not given here) | 0 (compounds with IC50 > 20 μM, percentage inhibition <80% at 20 µM or 50 μM, or percentage enzyme inhibition <50% at 10 µM were labelled as INACTIVE)

Row | SMILES | Class (MPro activity class)
23 | CC1NC(=O)C(Cc2ccccc2)N(C)C(=O)CNC(=O)C(Cc2ccccc2)N(C)C1=O (centres unmarked) [COV19097] (cyclo(G[NMeF]A[NMeF]); configuration not given here) | 0 (compounds with IC50 > 20 μM, percentage inhibition <80% at 20 µM or 50 μM, or percentage enzyme inhibition <50% at 10 µM were labelled as INACTIVE)
24 | CC(=NNC(N)=S)c1cc2ccccc2oc1=O [COV19136] | 0 (compounds with IC50 > 20 μM, percentage inhibition <80% at 20 µM or 50 μM, or percentage enzyme inhibition <50% at 10 µM were labelled as INACTIVE)
25 | CNC(=S)NN=C(C)c1cc2ccccc2oc1=O [COV19137] | 0 (compounds with IC50 > 20 μM, percentage inhibition <80% at 20 µM or 50 μM, or percentage enzyme inhibition <50% at 10 µM were labelled as INACTIVE)
26 | CCNC(=S)NN=C(C)c1cc2ccccc2oc1=O [COV19138] | 0 (compounds with IC50 > 20 μM, percentage inhibition <80% at 20 µM or 50 μM, or percentage enzyme inhibition <50% at 10 µM were labelled as INACTIVE)
27 | CC(=NNC(=S)Nc1ccccc1)c1cc2ccccc2oc1=O [COV19139] | 0 (compounds with IC50 > 20 μM, percentage inhibition <80% at 20 µM or 50 μM, or percentage enzyme inhibition <50% at 10 µM were labelled as INACTIVE)
28 | CC(=NNC(N)=S)c1c(O)c2ccccc2oc1=O [COV19140] | 0 (compounds with IC50 > 20 μM, percentage inhibition <80% at 20 µM or 50 μM, or percentage enzyme inhibition <50% at 10 µM were labelled as INACTIVE)
29 | CNC(=S)NN=C(C)c1c(O)c2ccccc2oc1=O [COV19141] | 0 (compounds with IC50 > 20 μM, percentage inhibition <80% at 20 µM or 50 μM, or percentage enzyme inhibition <50% at 10 µM were labelled as INACTIVE)
30 | CCNC(=S)NN=C(C)c1c(O)c2ccccc2oc1=O [COV19142] | 0 (compounds with IC50 > 20 μM, percentage inhibition <80% at 20 µM or 50 μM, or percentage enzyme inhibition <50% at 10 µM were labelled as INACTIVE)
31 | CC(=NNC(=S)Nc1ccccc1)c1c(O)c2ccccc2oc1=O [COV19143] | 0 (compounds with IC50 > 20 μM, percentage inhibition <80% at 20 µM or 50 μM, or percentage enzyme inhibition <50% at 10 µM were labelled as INACTIVE)
32 | CC(=NNC(N)=O)c1cc2ccccc2oc1=O [COV19144] | 0 (compounds with IC50 > 20 μM, percentage inhibition <80% at 20 µM or 50 μM, or percentage enzyme inhibition <50% at 10 µM were labelled as INACTIVE)
33 | CC(=NNC(N)=[Se])c1cc2ccccc2oc1=O [COV19145] | 0 (compounds with IC50 > 20 μM, percentage inhibition <80% at 20 µM or 50 μM, or percentage enzyme inhibition <50% at 10 µM were labelled as INACTIVE)
34 | CN(CCc1ccc(Cl)cc1)C(=S)c1ccccc1I [COV19183] | 0 (compounds with IC50 > 20 μM, percentage inhibition <80% at 20 µM or 50 μM, or percentage enzyme inhibition <50% at 10 µM were labelled as INACTIVE)
35 | CC(C)(C)OC(=O)NC1CCCN(CC(=O)NC(Cc2ccccc2)C(=O)Nc2nc3cc(Sc4ccccc4)ccc3[nH]2)C1=O (centres unmarked) [COV19184] | 0 (compounds with IC50 > 20 μM, percentage inhibition <80% at 20 µM or 50 μM, or percentage enzyme inhibition <50% at 10 µM were labelled as INACTIVE)
36 | CCCOC(=O)C(Cc1ccccc1)NC(=O)CN1CCCC(NC(=O)OC(C)(C)C)C1=O (centres unmarked) [COV19185] | 0 (compounds with IC50 > 20 μM, percentage inhibition <80% at 20 µM or 50 μM, or percentage enzyme inhibition <50% at 10 µM were labelled as INACTIVE)
37 | CC(=O)OCC1OC(OC(C)=O)C(NC(=O)C(Cc2ccccc2)NC(=O)CN2CCCC(NC(=O)OC(C)(C)C)C2=O)C(OC(C)=O)C1OC(C)=O (centres unmarked) [COV19186] | 1 (Compounds with IC50 < 10 µM or with a percentage of enzyme inhibition >50% at 10 µM were labelled as ACTIVE)
38 | C(=Cc1ccco1)C=Nn1cnnc1 [COV19287] | 0 (compounds with IC50 > 20 μM, percentage inhibition <80% at 20 µM or 50 μM, or percentage enzyme inhibition <50% at 10 µM were labelled as INACTIVE)
39 | Cc1c(C(=O)Nc2ccccc2)[n+]([O-])c2cc(CN(C)CC=Cc3ccccc3)ccc2[n+]1[O-] [COV19291] | 0 (compounds with IC50 > 20 μM, percentage inhibition <80% at 20 µM or 50 μM, or percentage enzyme inhibition <50% at 10 µM were labelled as INACTIVE)
40 | O=S(=O)(C=Cc1ccc2no[n+]([O-])c2c1)c1ccccc1 [COV19497] | 1 (Compounds with IC50 < 10 µM or with a percentage of enzyme inhibition >50% at 10 µM were labelled as ACTIVE)
41 | O=S(=O)(C=Cc1ccc2nonc2c1)c1ccccc1 [COV19498] | 0 (compounds with IC50 > 20 μM, percentage inhibition <80% at 20 µM or 50 μM, or percentage enzyme inhibition <50% at 10 µM were labelled as INACTIVE)
42 | O=S(=O)(C=Cc1ccc2no[n+]([O-])c2c1)c1ccc(Cl)cc1 [COV19499] | 1 (Compounds with IC50 < 10 µM or with a percentage of enzyme inhibition >50% at 10 µM were labelled as ACTIVE)
43 | O=S(=O)(C=Cc1ccc2no[n+]([O-])c2c1)c1ccc(F)cc1 [COV19500] | 1 (Compounds with IC50 < 10 µM or with a percentage of enzyme inhibition >50% at 10 µM were labelled as ACTIVE)
44 | [O-][n+]1onc2ccc(C=CSc3ccc(F)cc3)cc21 [COV19501] | 1 (Compounds with IC50 < 10 µM or with a percentage of enzyme inhibition >50% at 10 µM were labelled as ACTIVE)
